Ends that are not written are not given here.
Columns and labels:
[1] = system: primary culture of human foreskin fibroblasts; type: cell-based; details: 2 h
Description: The toxicity of the ethanolic extract of B. pilosa, the palindromic peptide, and their combinations was evaluated in a primary culture of human foreskin fibroblasts by the MTT (tetrazolium salt, Sigma-Aldrich) assay, with modifications. Briefly, cells were seeded in 96-well plates at a density of 1 × 10^4 cells and 100 μL per well and allowed to adhere and proliferate for 24 h RPMI medium at 37 °C and 5% CO2.
Following this, the complete medium was replaced with incomplete medium (without 10% fetal bovine serum) for an additional 24 h in order to achieve synchronization. The cells were then incubated at 37 °C and 5% CO2 for 2 h with 100 μL of B. pilosa extract (31.25–2000 µg/mL), peptide at the concentrations evaluated (3.12–200 μg/mL), and additive or synergistic combinations (C 1: 25/250 µg/mL, C 2: 50/62.5 µg/mL, C 3: 100/125 µg/mL, and C 4: 25/31.25 µg/mL). The culture medium was removed, and 100 μL of incomplete medium with 10% MTT was added and incubated at 37 °C and 5% CO2 for 4 h. […] Following a 30 min incubation at 37 °C, the absorbance at 575 nm was measured, using the BioTek ELx800 absorbance reader (Agilent, Santa Clara, USA). […] In addition, the half-maximal inhibitory concentration (IC50) was calculated by plotting viability versus log (concentration).

C. albicans SC5314 = experiment: microbe, parasite or virus in culture; type: cell-based, Candida albicans; details: SC5314, 48 h
Description: For the determination of the MICs, the guidelines of the Clinical Laboratory Standards Institute (CLSI BMD-M27-A4) were used with some modifications. Serial dilutions were made, for peptides from 6.25 to 200 µg/mL and for extracts from 31.2 to 2000 µg/mL, with RPMI 1640 medium in a 96-well microdilution plate (100 µL), and then 100 µL of the adjusted inoculum (0.5–2.5 × 10^3 cells/mL) was added and incubated at 37 °C, and visual and spectrophotometric reading (595 nm) was performed at 48 h. Controls: growth control in RPMI or DMSO, control with a known antifungal: FLC, C. albicans SC5314 (1 µg/mL), C. albicans 256 (64 µg/mL), C. auris 435 (8 µg/mL), and C. auris 537 (128 µg/mL), sterility controls correspond to RPMI medium and SS. The MIC was defined as the minimum concentration of peptide or extract that inhibited 50% of growth compared to the control. To determine the minimal fungicidal concentration (MFC), from the concentrations where no growth was observed, including the controls, a subculture was made on SDA and incubated for 24 h at 37 °C. The MFC was defined as the minimum concentration of peptide or extract that eliminated 100% of the growth compared to the control (n = 3).

human red blood cells = experiment: Hemolytic activity assay; type: cell-based; details: positive control, Tween-20 (20% v/v) in PBS
Description: The hemolytic activity of the ethanolic extract of B. pilosa, palindromic peptide, and their combinations was analyzed on human red blood cells. Briefly, 5 mL of peripheral blood from a healthy individual was collected in an EDTA tube and centrifuged at 2500 rpm for 7 min. The erythrocyte-rich fraction was suspended in PBS and washed twice by centrifugation. Then, 100 µL of the B. pilosa extracts (15.62–2000 µg/mL), palindromic peptide (1.56–200 µg/mL), or additive or synergistic combinations of peptide and plant extract (combination 1: 25/250 µg/mL, combination 2: 50/62.5 µg/mL, combination 3: 100/125 µg/mL, and combination 4: 25/31.25 µg/mL) was mixed with 100 µL of erythrocytes (2% hematocrit) in round-bottom 96-well plates and incubated at 37 °C for 2 h. Subsequently, the reaction was stopped by centrifuging for 10 min at 2500 rpm. To measure hemoglobin levels, 100 µL of the supernatant containing the hemoglobin released from lysed erythrocytes was transferred to a 96-well plate with a flat bottom, and the absorbance was measured at 450 nm. PBS was used as a negative control, while Tween-20 (20% v/v) in PBS was used as a positive control (n = 3).

MIC (C. albicans SC5314) [µM] | Substance | IC50 [1] [µg/mL] | Hemolysis (in words) (human red blood cells)
67 | RWQWRWQWR-NH2 [Peptide R-1-R] | 175.9 | –
– | Tween-20 | – | completely lysed the red blood cells

Source: PMC10455339, “Combining the Peptide RWQWRWQWR and an Ethanolic Extract of Bidens pilosa Enhances the Activity against Sensitive and Resistant Candida albicans and C. auris Strains” (Journal of Fungi, 2023)
